# In patent US12077503B2, “Substituted cyclic amides and their use as herbicides” (FMC CORPORATION, priority 2015, dated 2024):
# Experiments:
# Format in all cases: in vivo
# [1] = tested on: barnyardgrass (Echinochloa crus-galli); experiment: Test G Pre-Emergence Protocol; conditions: Echinochloa crus-galli, pre-emergence, 312 h, evaluated after 13 days; for pest or weed control at 15.625 g/ha: 15.625 g ai/ha, read-out: Barnyard grass damage rating (100=total damage to plant; 0=no damage to plant); for pest or weed control at 62.5 g/ha: 62.5 g ai/ha, 100=total damage to plant, 0=no damage to plant, read-out: plant damage rating, Barnyardgrass; for pest or weed control at 250 g/ha: 250 g ai/ha, read-out: Barnyardgrass damage rating (100=total damage to plant; 0=no damage to plant)
# How it was run: (§1)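 Scores are visual damage ratings from 0 (no damage) to 100 (total plant kill), taken 13 days after treatment. Compound was sprayed one day post-sowing at 15.625, 62.5 or 250 g/ha in 50:50 acetone/water with 0.5% Tween 20.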
# [2] = tested on: corn (Zea mays); experiment: Test G Pre-Emergence Protocol; conditions: Zea mays, pre-emergence, 312 h, evaluated after 13 days; for plant injury at 15.625 g/ha: 15.625 g ai/ha; for plant injury at 15.625 g/ha / plant injury at 250 g/ha: read-out: Corn damage rating (100=total damage to plant; 0=no damage to plant); for plant injury at 62.5 g/ha: 62.5 g ai/ha, 100=total damage to plant, 0=no damage to plant, read-out: plant damage rating, Corn; for plant injury at 250 g/ha: 250 g ai/ha
# How it was run: as §1
# [3] = tested on: giant foxtail (Setaria faberi); experiment: Test G Pre-Emergence Protocol; conditions: Setaria faberi, pre-emergence, 312 h, evaluated after 13 days; for pest or weed control at 15.625 g/ha: 15.625 g ai/ha; for pest or weed control at 15.625 g/ha / pest or weed control at 250 g/ha: read-out: Foxtail, Giant damage rating (100=total damage to plant; 0=no damage to plant); for pest or weed control at 62.5 g/ha: 62.5 g ai/ha, 100=total damage to plant, 0=no damage to plant, read-out: plant damage rating, Foxtail, Giant; for pest or weed control at 250 g/ha: 250 g ai/ha
# How it was run: as §1
# [4] = tested on: ivy-leaved morning glory (Ipomoea hederacea); experiment: Test G Pre-Emergence Protocol; conditions: Ipomoea, pre-emergence, 312 h, evaluated after 13 days; for pest or weed control at 15.625 g/ha: 15.625 g ai/ha, read-out: Morning-glory, Ivy-leaved damage rating (100=total damage to plant; 0=no damage to plant); for pest or weed control at 62.5 g/ha: 62.5 g ai/ha, 100=total damage to plant, 0=no damage to plant, read-out: plant damage rating, Morningglory, Ivy-leaved; for pest or weed control at 250 g/ha: 250 g ai/ha, read-out: Morningglory, Ivy-leaved damage rating (100=total damage to plant; 0=no damage to plant)
# How it was run: as §1
# [5] = tested on: redroot pigweed (Amaranthus retroflexus); experiment: Test G Pre-Emergence Protocol; conditions: Amaranthus retroflexus, pre-emergence, 312 h, evaluated after 13 days; for pest or weed control at 15.625 g/ha: 15.625 g ai/ha; for pest or weed control at 15.625 g/ha / pest or weed control at 250 g/ha: read-out: Pigweed, Redroot damage rating (100=total damage to plant; 0=no damage to plant); for pest or weed control at 62.5 g/ha: 62.5 g ai/ha, 100=total damage to plant, 0=no damage to plant, read-out: plant damage rating, Pigweed, Redroot; for pest or weed control at 250 g/ha: 250 g ai/ha
# How it was run: as §1
# [6] = tested on: velvetleaf (Abutilon theophrasti); experiment: Test G Pre-Emergence Protocol; conditions: Abutilon theophrasti, pre-emergence, 312 h, evaluated after 13 days; for pest or weed control at 15.625 g/ha: 15.625 g ai/ha; for pest or weed control at 15.625 g/ha / pest or weed control at 250 g/ha: read-out: Velvetleaf damage rating (100=total damage to plant; 0=no damage to plant); for pest or weed control at 62.5 g/ha: 62.5 g ai/ha, 100=total damage to plant, 0=no damage to plant, read-out: plant damage rating, Velvetleaf; for pest or weed control at 250 g/ha: 250 g ai/ha
# How it was run: as §1
# [7] = tested on: barnyardgrass (Echinochloa crus-galli); experiment: Test G Post-Emergence Protocol; conditions: Echinochloa crus-galli, post-emergence, 312 h; for pest or weed control at 15.625 g/ha: 15.625 g ai/ha, evaluated after 13 days (100=total damage to plant; 0=no damage to plant), read-out: Barnyardgrass damage rating; for pest or weed control at 62.5 g/ha: 62.5 g ai/ha, read-out: Barnyardgrass damage rating (100=total damage to plant; 0=no damage to plant); for pest or weed control at 62.5 g/ha / pest or weed control at 250 g/ha: evaluated after 13 days; for pest or weed control at 250 g/ha: 250 g ai/ha, read-out: damage to plant, Barnyardgrass (100=total damage to plant; 0=no damage to plant)
# How it was run: (§2)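 Eight days post-sowing, plants received a spray of test compound (acetone/water 50:50, 0.5% Tween 20) at 15.625, 62.5 or 250 g/ha. Glasshouse regime thereafter: 24/16 °C, 14 h light, 65% humidity. Assessment after 13 days on a 0–100 damage scale.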
# [8] = tested on: corn (Zea mays); experiment: Test G Post-Emergence Protocol; conditions: Zea mays, post-emergence, 312 h; for plant injury at 15.625 g/ha: 15.625 g ai/ha, evaluated after 13 days (100=total damage to plant; 0=no damage to plant), read-out: Corn damage rating; for plant injury at 62.5 g/ha: 62.5 g ai/ha, read-out: Corn damage rating (100=total damage to plant; 0=no damage to plant); for plant injury at 62.5 g/ha / plant injury at 250 g/ha: evaluated after 13 days; for plant injury at 250 g/ha: 250 g ai/ha, read-out: damage to plant, Corn (100=total damage to plant; 0=no damage to plant)
# How it was run: as §2
# [9] = tested on: giant foxtail (Setaria faberi); experiment: Test G Post-Emergence Protocol; conditions: Setaria faberi, post-emergence, 312 h; for pest or weed control at 15.625 g/ha: 15.625 g ai/ha, evaluated after 13 days (100=total damage to plant; 0=no damage to plant), read-out: Foxtail, Giant damage rating; for pest or weed control at 62.5 g/ha: 62.5 g ai/ha, read-out: Foxtail, Giant damage rating (100=total damage to plant; 0=no damage to plant); for pest or weed control at 62.5 g/ha / pest or weed control at 250 g/ha: evaluated after 13 days; for pest or weed control at 250 g/ha: 250 g ai/ha, read-out: damage to plant, Foxtail, Giant (100=total damage to plant; 0=no damage to plant)
# How it was run: as §2
# [10] = tested on: ivy-leaved morning glory (Ipomoea hederacea); experiment: Test G Post-Emergence Protocol; conditions: Ipomoea, post-emergence, 312 h; for pest or weed control at 15.625 g/ha: 15.625 g ai/ha, evaluated after 13 days (100=total damage to plant; 0=no damage to plant), read-out: Morningglory, Ivy-leaved damage rating; for pest or weed control at 62.5 g/ha: 62.5 g ai/ha, read-out: Morningglory, Ivy-leaved damage rating (100=total damage to plant; 0=no damage to plant); for pest or weed control at 62.5 g/ha / pest or weed control at 250 g/ha: evaluated after 13 days; for pest or weed control at 250 g/ha: 250 g ai/ha, read-out: damage to plant, Morningglory, Ivy-leaved (100=total damage to plant; 0=no damage to plant)
# How it was run: as §2
# [11] = tested on: redroot pigweed (Amaranthus retroflexus); experiment: Test G Post-Emergence Protocol; conditions: Amaranthus retroflexus, post-emergence, 312 h; for pest or weed control at 15.625 g/ha: 15.625 g ai/ha, evaluated after 13 days (100=total damage to plant; 0=no damage to plant), read-out: Pigweed, Redroot damage rating; for pest or weed control at 62.5 g/ha: 62.5 g ai/ha, read-out: Pigweed, Redroot damage rating (100=total damage to plant; 0=no damage to plant); for pest or weed control at 62.5 g/ha / pest or weed control at 250 g/ha: evaluated after 13 days; for pest or weed control at 250 g/ha: 250 g ai/ha, read-out: damage to plant, Pigweed, Redroot (100=total damage to plant; 0=no damage to plant)
# How it was run: as §2
# [12] = tested on: velvetleaf (Abutilon theophrasti); experiment: Test G Post-Emergence Protocol; conditions: Abutilon theophrasti, post-emergence, 312 h; for pest or weed control at 15.625 g/ha: 15.625 g ai/ha, evaluated after 13 days (100=total damage to plant; 0=no damage to plant), read-out: Velvetleaf damage rating; for pest or weed control at 62.5 g/ha: 62.5 g ai/ha, read-out: Velvetleaf damage rating (100=total damage to plant; 0=no damage to plant); for pest or weed control at 62.5 g/ha / pest or weed control at 250 g/ha: evaluated after 13 days; for pest or weed control at 250 g/ha: 250 g ai/ha, read-out: damage to plant, Velvetleaf (100=total damage to plant; 0=no damage to plant)
# How it was run: as §2
SMILES,pest or weed control at 15.625 g/ha [1] [%],pest or weed control at 62.5 g/ha [1] [%],pest or weed control at 250 g/ha [1] [%],plant injury at 15.625 g/ha [2] [%],plant injury at 62.5 g/ha [2] [%],plant injury at 250 g/ha [2] [%],pest or weed control at 15.625 g/ha [3] [%],pest or weed control at 62.5 g/ha [3] [%],pest or weed control at 250 g/ha [3] [%],pest or weed control at 15.625 g/ha [4] [%],pest or weed control at 62.5 g/ha [4] [%],pest or weed control at 250 g/ha [4] [%],pest or weed control at 15.625 g/ha [5] [%],pest or weed control at 62.5 g/ha [5] [%],pest or weed control at 250 g/ha [5] [%],pest or weed control at 15.625 g/ha [6] [%],pest or weed control at 62.5 g/ha [6] [%],pest or weed control at 250 g/ha [6] [%],pest or weed control at 15.625 g/ha [7] [%],pest or weed control at 62.5 g/ha [7] [%],further results
CN1C[C@@H](c2ccc(C(F)(F)F)cc2)[C@H](C(=O)Nc2nccnc2Cl)C1=O (racemic) [Compound 1552],0,0,0,0,0,0,0,0,0,0,0,0,0,0,0,0,0,0,0,0,pest or weed control at 250 g/ha [7]: 0%; plant injury at 15.625 g/ha [8]: 10%; plant injury at 62.5 g/ha [8]: 10%; plant injury at 250 g/ha [8]: 10%; pest or weed control at 15.625 g/ha [9]: 0%; pest or weed control at 62.5 g/ha [9]: 0%; pest or weed control at 250 g/ha [9]: 0%; pest or weed control at 15.625 g/ha [10]: 0%; pest or weed control at 62.5 g/ha [10]: 0%; pest or weed control at 250 g/ha [10]: 0%; pest or weed control at 15.625 g/ha [11]: 0%; pest or weed control at 62.5 g/ha [11]: 0%; pest or weed control at 250 g/ha [11]: 0%; pest or weed control at 15.625 g/ha [12]: 0%; pest or weed control at 62.5 g/ha [12]: 0%; pest or weed control at 250 g/ha [12]: 0%
Cc1ccc(NC(=O)[C@@H]2C(=O)N(C)C[C@H]2c2ccc(C(F)(F)F)cc2)nn1 (racemic) [Compound 1543],0,0,0,0,0,0,0,0,0,0,0,0,0,0,0,0,0,0,0,0,pest or weed control at 250 g/ha [7]: 0%; plant injury at 15.625 g/ha [8]: 0%; plant injury at 62.5 g/ha [8]: 0%; plant injury at 250 g/ha [8]: 10%; pest or weed control at 15.625 g/ha [9]: 0%; pest or weed control at 62.5 g/ha [9]: 0%; pest or weed control at 250 g/ha [9]: 20%; pest or weed control at 15.625 g/ha [10]: 0%; pest or weed control at 62.5 g/ha [10]: 0%; pest or weed control at 250 g/ha [10]: 30%; pest or weed control at 15.625 g/ha [11]: 0%; pest or weed control at 62.5 g/ha [11]: 0%; pest or weed control at 250 g/ha [11]: 40%; pest or weed control at 15.625 g/ha [12]: 0%; pest or weed control at 62.5 g/ha [12]: 0%; pest or weed control at 250 g/ha [12]: 30%
Cc1ccnc(NC(=O)[C@@H]2C(=O)N(C)C[C@H]2c2ccc(C(F)(F)F)cc2)n1 (racemic) [Compound 1557],0,0,10,0,0,10,0,0,20,0,0,0,0,0,0,0,0,0,0,20,pest or weed control at 250 g/ha [7]: 20%; plant injury at 15.625 g/ha [8]: 0%; plant injury at 62.5 g/ha [8]: 0%; plant injury at 250 g/ha [8]: 20%; pest or weed control at 15.625 g/ha [9]: 0%; pest or weed control at 62.5 g/ha [9]: 0%; pest or weed control at 250 g/ha [9]: 10%; pest or weed control at 15.625 g/ha [10]: 0%; pest or weed control at 62.5 g/ha [10]: 0%; pest or weed control at 250 g/ha [10]: 0%; pest or weed control at 15.625 g/ha [11]: 0%; pest or weed control at 62.5 g/ha [11]: 0%; pest or weed control at 250 g/ha [11]: 0%; pest or weed control at 15.625 g/ha [12]: 0%; pest or weed control at 62.5 g/ha [12]: 0%; pest or weed control at 250 g/ha [12]: 10%
